Experimental data from patent US20170304286A1 (LAUNX BIOMEDICAL CO., LTD., priority 2014, published 2017).
Like-named read-outs stand apart in the source and are kept apart here.

What was measured:
Type in all cases: cell-based
U2OS = assay: WST-1 cell viability, osteosarcoma cell line U2OS; details: Homo sapiens, 72 h
Method: (§1) The cell numbers were counted and reseed as 2×10^6 in culture plate/flask. Then, the culture medium were added to a volume of 10 ml, and the cells were cultured for 2-3 days. Then, the cells were suspended for loading into 96-well plates. The number of cells was 3000 and the volume of the culture medium was 100 μl each well.
(§2) Removing the original culture medium from 96-well plate. Then add 100 μl of commercially drug at a concentration of 10 μM per well. After 72 hours, add the diluted WST-1 reagent to the well with 100 μl/well, and the diluted WST-1 reagent was acquired from the dilution of 9:1 medium and WST-1 stock reagent. Finally, the total volume of each well was 200 μl/well. Culture the 96-well plate at 37° C. for 30 to 90 minutes. Detecting and calculate the survival rate of each cancer cells with an ELISA reader at OD450 nm.

[1] = test system: SAS (Tongue squamouscell carcinoma); assay: WST-1 cell viability, tongue cancer cell line SAS; details: 72 h
Method: as §1, §2

[2] = WST-1 cell viability, normal pulmonary epithelial cell line BEAS-2B; details: human, BEAS-2B normal bronchial (pulmonary) epithelial cells
various cancer cells = assay: Inhibitory effect on various cancer cells (cell viability); details: Table 18, FIG. 1
Source text: Subculture the different types of cancer cells. The cancer cells includes lung cancer, gastric cancer, hepatic cancer, colon cancer, skin cancer, cervical cancer, prostate cancer, bladder cancer, breast cancer, leukemia, pancreatic cancer, ovarian cancer, tongue cancer, osteosarcoma, and renal cancer. The normal cells used in the control group included kidney cells (HEK293), canine fibroblast cell line HFW, and human bronchial epithelial cell line BEAS-2B. Removing the original culture medium from 96-well plate. […] After 72 hours, add the diluted WST-1 reagent to the well with 100 μl/well, and the diluted WST-1 reagent was acquired from the dilution of 9:1 medium and WST-1 stock reagent. […] Culture the 96-well plate at 37° C. for 30 to 90 minutes. Detecting and calculate the survival rate of each cancer cells with an ELISA reader at OD450 nm. […] (FIG. 1)

[3] = test system: MDA-MB-231 (Mammary Gland, Adenocarcinoma); assay: WST-1 cell viability, breast cancer cell line MDA-MB-231; details: Homo sapiens
Method: as §1, §2

[4] = test system: HeLa (CervixAdenocarcinoma); assay: WST-1 cell viability, cervical cancer cell line HeLa; details: Homo sapiens, 72 h
Method: as §1, §2

pancreatic cancer cells = assay: Summary of cell viability, pancreatic cancer; details: 72 h, read-out: Inhibitory effect
Method: as §2

[5] = test system: A375 (amelanotic melanoma); assay: WST-1 cell viability, skin cancer cell line A375; details: Homo sapiens
Method: as §1, §2

[6] = test system: H1650 (lung adenocarcinoma); assay: WST-1 cell viability, lung cancer cell line H1650; details: Homo sapiens
Method: as §1, §2

HCT116-wt = assay: WST-1 cell viability, colorectal cancer cell line HCT116-wt; details: 72 h
Method: as §1, §2

cervical cancer cells = assay: Summary of cell viability, cervical cancer; details: 72 h, read-out: Inhibitory effect
Method: as §2

breast cancer cells = assay: Summary of cell viability, breast cancer; details: 72 h, read-out: Inhibitory effect
Method: as §2

[7] = WST-1 cell viability, normal kidney cell line HEK293; details: human, HEK293 normal kidney cells
Method: as §1, §2

hepatic cancer cells = assay: Summary of cell viability, hepatic cancer; details: 72 h, read-out: Inhibitory effect
Method: as §2

colorectal cancer cells = assay: Summary of cell viability, colorectal cancer; details: 72 h, read-out: Inhibitory effect
Method: as §2

[8] = average of 4 tests, read-out: survival rate (inhibition effect), Average

Question: Which viability at 10 µM (U2OS; [8]) does the source give for `Fc1ccc([C@@H]2CCNC[C@H]2COc2ccc3c(c2)OCO3)cc1` [Paroxetine] here?
Answer: 33.2%

Question: And the viability at 10 µM (U2OS; run 6-26-10 min, read-out: survival rate (inhibition effect))?
Answer: 40.6%

Question: What about the viability at 10 µM (U2OS; run 6-28-10 min, read-out: survival rate (inhibition effect)) of the same compound?
Answer: 30.8%

Question: And the viability at 10 µM (U2OS; run 6-30-10 min, read-out: survival rate (inhibition effect))?
Answer: 30.3%

Question: And the viability at 10 µM (U2OS; run 7-3-10 min, read-out: survival rate (inhibition effect))?
Answer: 31.1%

Question: And the viability at 10 µM (U2OS; summary, osteosarcoma, read-out: Inhibitory effect)?
Answer: 33.2%

Question: And the viability at 10 µM ([1]; SAS, average of 4 tests, read-out: survival rate (inhibition effect), Average)?
Answer: 51.5%

Question: What about the viability at 10 µM ([1]; summary, tongue cancer, read-out: Inhibitory effect) of the same compound?
Answer: 51.5%

Question: And the viability at 10 µM ([1]; SAS, run 6-26-10 min, read-out: survival rate (inhibition effect))?
Answer: 48.2%

Question: What about the viability at 10 µM ([1]; SAS, run 6-28-10 min, read-out: survival rate (inhibition effect)) of the same compound?
Answer: 26.7%

Question: And the viability at 10 µM ([1]; SAS, run 6-30-10 min, read-out: survival rate (inhibition effect))?
Answer: 58%

Question: And the viability at 10 µM ([1]; SAS, run 7-3-10 min, read-out: survival rate (inhibition effect))?
Answer: 73.1%

Question: And the viability at 72 h, 10 µM ([2]; BEAS-2B, average of 4 tests, read-out: survival rate (inhibition effect), Average)?
Answer: 98.6%

Question: What about the viability at 72 h, 10 µM ([2]; BEAS-2B, run 0512-10 min, read-out: survival rate (inhibition effect)) of the same compound?
Answer: 103%

Question: What about the viability at 72 h, 10 µM ([2]; BEAS-2B, run 0515-10 min, read-out: survival rate (inhibition effect)) of the same compound?
Answer: 96.4%

Question: What about the viability at 72 h, 10 µM ([2]; BEAS-2B, run 0517-10 min, read-out: survival rate (inhibition effect)) of the same compound?
Answer: 94.6%

Question: And the viability at 72 h, 10 µM ([2]; summary, pulmonary epithelial cell line, read-out: Inhibitory effect)?
Answer: 98.6%

Question: And the “inhibitory effect on several cancer cell lines” value (various cancer cells)?
Answer: significant inhibitory effect

Question: And the viability at 10 µM ([3]; MDA-MB-231, 72 h, MDA-MB-231, average of 4 tests, read-out: survival rate (inhibition effect), Average)?
Answer: 41.8%

Question: What about the viability at 10 µM ([3]; MDA-MB-231, MDA-MB-231, 72 h, run 0612-10 min, read-out: survival rate (inhibition effect)) of the same compound?
Answer: 47.9%

Question: What about the viability at 10 µM ([3]; MDA-MB-231, MDA-MB-231, 72 h, run 0614-10 min, read-out: survival rate (inhibition effect)) of the same compound?
Answer: 35.9%

Question: What about the viability at 10 µM ([3]; MDA-MB-231, MDA-MB-231, 72 h, run 0616-10 min, read-out: survival rate (inhibition effect)) of the same compound?
Answer: 42%

Question: What about the viability at 10 µM ([3]; MDA-MB-231, MDA-MB-231, 72 h, run 0619-10 min, read-out: survival rate (inhibition effect)) of the same compound?
Answer: 41.2%

Question: What about the viability at 10 µM [4, 8] of the same compound?
Answer: 63.8%

Question: And the viability at 10 µM ([4]; run 0524-10 min, read-out: survival rate (inhibition effect))?
Answer: 52.6%

Question: What about the viability at 10 µM ([4]; run 0526-10 min, read-out: survival rate (inhibition effect)) of the same compound?
Answer: 78.3%

Question: And the viability at 10 µM ([4]; run 0529-10 min, read-out: survival rate (inhibition effect))?
Answer: 51%

Question: And the viability at 10 µM ([4]; run 0531-10 min, read-out: survival rate (inhibition effect))?
Answer: 73.4%

Question: What about the viability at 10 µM (pancreatic cancer cells) of the same compound?
Answer: 77.4%

Question: What about the viability at 10 µM ([5]; A-375, 72 h, A375, average of 4 tests, read-out: survival rate (inhibition effect), Average) of the same compound?
Answer: 43.8%

Question: And the viability at 10 µM ([5]; A-375, A375, 72 h, run 0602-30 min, read-out: survival rate (inhibition effect))?
Answer: 46.8%

Question: What about the viability at 10 µM ([5]; A-375, A375, 72 h, run 0605-10 min, read-out: survival rate (inhibition effect)) of the same compound?
Answer: 44.4%

Question: And the viability at 10 µM ([5]; A-375, A375, 72 h, run 0607-10 min, read-out: survival rate (inhibition effect))?
Answer: 35.4%

Question: And the viability at 10 µM ([5]; A-375, A375, 72 h, run 0609-10 min, read-out: survival rate (inhibition effect))?
Answer: 48.8%

Question: What about the viability at 10 µM ([6]; NCI-H1650, 72 h, H1650, average of 4 tests, read-out: survival rate (inhibition effect), Average) of the same compound?
Answer: 56.9%

Question: What about the viability at 10 µM ([6]; NCI-H1650, H1650, 72 h, run 1-10 min, read-out: survival rate (inhibition effect)) of the same compound?
Answer: 66.4%

Question: And the viability at 10 µM ([6]; NCI-H1650, H1650, 72 h, run 2-20 min, read-out: survival rate (inhibition effect))?
Answer: 31.6%

Question: What about the viability at 10 µM ([6]; NCI-H1650, H1650, 72 h, run 3-20 min, read-out: survival rate (inhibition effect)) of the same compound?
Answer: 58.2%

Question: And the viability at 10 µM ([6]; NCI-H1650, H1650, 72 h, run 4-20 min, read-out: survival rate (inhibition effect))?
Answer: 71.3%

Question: And the viability at 10 µM (HCT116-wt; [8])?
Answer: 28.4%

Question: What about the viability at 10 µM (HCT116-wt; run 0602-30 min, read-out: survival rate (inhibition effect)) of the same compound?
Answer: 23.8%

Question: What about the viability at 10 µM (HCT116-wt; run 0605-10 min, read-out: survival rate (inhibition effect)) of the same compound?
Answer: 30.6%

Question: And the viability at 10 µM (HCT116-wt; run 0607-10 min, read-out: survival rate (inhibition effect))?
Answer: 29.7%

Question: And the viability at 10 µM (HCT116-wt; run 0609-10 min, read-out: survival rate (inhibition effect))?
Answer: 29.5%

Question: What about the viability at 10 µM (cervical cancer cells) of the same compound?
Answer: 63.8%

Question: What about the viability at 10 µM (breast cancer cells) of the same compound?
Answer: 46.5%

Question: And the viability at 72 h, 10 µM ([7]; HEK293, average of 4 tests, read-out: survival rate (inhibition effect), Average)?
Answer: 71.4%

Question: And the viability at 72 h, 10 µM ([7]; HEK293, run 0602-30 min, read-out: survival rate (inhibition effect))?
Answer: 64.9%

Question: What about the viability at 72 h, 10 µM ([7]; HEK293, run 0605-30 min, read-out: survival rate (inhibition effect)) of the same compound?
Answer: 76.8%

Question: And the viability at 72 h, 10 µM ([7]; HEK293, run 0607-30 min, read-out: survival rate (inhibition effect))?
Answer: 76%

Question: And the viability at 72 h, 10 µM ([7]; HEK293, run 0609-30 min, read-out: survival rate (inhibition effect))?
Answer: 67.8%

Question: What about the viability at 72 h, 10 µM ([7]; summary, kidney cell, read-out: Inhibitory effect) of the same compound?
Answer: 71.4%

Question: What about the viability at 10 µM (hepatic cancer cells) of the same compound?
Answer: 60.1%

Question: And the viability at 10 µM (colorectal cancer cells)?
Answer: 43.2%
